Assay results: patent US20190292516A1, “METHOD FOR IMPROVING PRODUCT TITER IN A CELL AND A CELL MEDIA FOR IMPROVING THE SAME” (VALITACELL LIMITED, priority 2018, published 2019)

Columns and labels:
Format in all cases: cell-based, Chinese Hamster
[1] = system: CHO-S stable clone producing an anti-Her2 like IgG1 antibody; assay: Cell cycle analysis by propidium iodide staining and flow cytometry; settings: 3TAA 2.5 mM added Day 0, shake flask, analysed Day 4
Procedure: (§1) Shake flask cultures were performed in vented Erlenmeyer flasks with a 30 ml working culture volume. Cells were seeded at 0.2×10^6 cells ml^−1. 3TAA was added at 2.5 mM (optimum concentrations from deep well plate culture) on Day 0. Growth and titer were monitored daily. Total RNA and histone extracts were collected from Day 5 of culture. Cell cycle and apoptosis analysis were performed on Day 4 and Day 5 post seeding respectively.
1×10^6 cells were extracted from culture and fixed in 4% paraformaldehyde (Alfa Aesar; Thermo Fisher Scientific). The cells were then stained with propidium iodide using the FxCycle™ PI/RNase Staining Solution (Thermo Fisher Scientific). Cell cycle analysis was performed on the Attune Acoustic Focusing Cytometer (Thermo Fisher Scientific).

[2] = system: CHO-S stable clone producing an anti-Her2 like IgG1 antibody; assay: Deep well shaking plate culture with chemical enhancer added at Day 0 or Day 3; cell growth, viability and titer
Procedure: The Applicant uses a platform consisting of screening Chinese Hamster Ovary (CHO) cell clone leads grown in a deep well plate coated with media containing 3TAA. The cells are measured for increased growth and productivity (titer) to determine whether 3TAA, and other enhancer chemicals, have offered the optimum cell culture environment, and can improve the growth and/or productivity of promising lead clones, which otherwise, grown in sub-optimal conditions, would not have been selected. To establish optimum concentration for the best titer boost, high throughput experimentation was performed in 96 deep well plates (Greiner Bio-One, Gloucestershire, United Kingdom). The cell line used was a CHO-S stable clone producing an anti-Her2 like IgG1 antibody. Cells were cultured in CD CHO medium (Thermo Fisher Scientific, Paisley, UK), supplemented with 8 mM L-glutamine, 1% HT supplement and 12.5 ug/ml puromycin selection marker (Thermo Fisher Scientific, Paisley, UK). Cells grown in these plates were incubated at 320 rpm (25 mm throw), 37° C., 5% CO2 and 85% humidity. The plates were covered with vented lids and secured using clamps (“System Duetz”; Enzyscreen B.V., Heemstede, Netherlands). Cells were seeded at 0.2×10^6 cells ml^−1 with a seeding volume of 450 μL (unless specified otherwise). Chemical enhancer molecules, including 3TAA, were trialled at 4 to 10 different concentrations at Day 0 in culture. Subsequently, a subset of concentrations was carried forward for delayed addition at Day 3 of culture. Day 3 was chosen based on the cell growth profile in deep well plates. Cells were cultured for 5 days before culture attributes (cell growth and titer) were recorded, unless otherwise stated. Cell growth was measured using the PrestoBlue® Assay (ThermoFisher Scientific), viability was verified using the Vi-cell™ cell viability analyser (Beckmann Coulter, High Wycombe, UK), and titer was measured using the Valita™TITER assay (Valitacell, Dublin, Ireland).

[3] = system: CHO-S stable clone producing an anti-Her2 like IgG1 antibody; assay: Batch shake flask culture supplemented with 3TAA; settings: 2.5 mM, Day 0 addition, 10 days
Procedure: as §1

[4] = Batch shake flask culture supplemented with 3TAA; settings: Chinese hamster, CHO-S stable clone producing an anti-Her2 like IgG1 antibody, Day 0 addition
Procedure: as §1

[5] = system: CHO-S stable clone producing an anti-Her2 like IgG1 antibody; assay: Apoptosis analysis of 3TAA supplemented shake flask cultures; settings: 3TAA 2.5 mM added Day 0, shake flask, analysed Day 5
Procedure: as §1

[6] = 3TAA 2.5 mM, Day 0 addition, deep well plate

Question: What does the source list for `O=C(O)Cc1ccsc1` [3TAA, 3-Thiopheneacetic acid]?
Answer: increase in accumulation in the G1 phase [1]: 11%; reduction in IVCD ([2]; 2.5 mM, Day 0 addition): 25%; titer boost ([2]; 2.5 mM, Day 0 addition): 160%; reduction in IVCD ([2]; 2.5 mM, Day 3 addition): 20%; titer boost ([2]; 2.5 mM, Day 3 addition): 177%; reduction in IVCD ([2]; 4 mM, Day 0 addition): 50%; titer boost ([2]; 4 mM, Day 0 addition): 17%; reduction in IVCD ([2]; 4 mM, Day 3 addition): 25%; titer boost ([2]; 4 mM, Day 3 addition): 125%; cell growth reduction [2, 6]: 25%; titer boost [2, 6]: 1.59 fold; titer boost ([2]; delayed addition at exponential phase (Day 3), concentration not given): 2.6 fold; culture viability in comparison to vehicle and no addition controls [3]: remained unaffected; increase in total volumetric titer [3]: 1.9 fold; decrease in peak viable cell density at 10 days, 2.5 mM [4]: 30%; initiation of apoptotic pathways [5]: Apoptotic pathways were not initiated
